The source made the active and inactive calls. The rule behind the calls is not given here.
Columns and labels:
[1] = system: Respiratory syncytial virus; assay: Antiviral activity against RSV infected in human HEp-2 cells assessed as decrease in virus induced TBK1 gene expression measured after 48 hrs by RT-PCR analysis; assay type: functional, organism-based
[2] = Inhibition of RSV induced ROS production in human HEp-2 cells assessed as reduction in accumulation of ROS-positive cells at 25 uM measured after 36 hrs by DCHF-DA staining based flow cytometry analysis (reference value: 82.2%); assay type: functional, Respiratory syncytial virus; design: scale not given: the % may be the effect or the level left
Human orthopneumovirus = assay: Antiviral activity against Respiratory syncytial virus A2 infected in human HEp-2 cells assessed as reduction in viral infection incubated for 60 hrs by MTT assay; assay type: functional, organism-based; conditions: A2, HEp-2, 60 h
[3] = system: Respiratory syncytial virus; assay: Antiviral activity against RSV infected in human HEp-2 cells assessed as decrease in virus induced RIG-1 gene expression measured after 48 hrs by RT-PCR analysis; assay type: functional, organism-based
[4] = system: Respiratory syncytial virus; assay: Antiviral activity against RSV infected in BALB/c mouse assessed as downregulation of IL-6 expression in lung tissue infected with RSV at 25 to 100 mg/kg/day measured after 2 days post infection by RT-PCR analysis; assay type: functional, organism-based; conditions: dose 25-100 mg/kg/day, time 2.0 day
[5] = system: Respiratory syncytial virus; assay: Antiviral activity against Respiratory syncytial virus infected in human HEp-2 cells assessed as reduction in RSV-F gene expression at 25 uM measured after 24 to 60 hpi by RT-PCR analysis; assay type: functional, organism-based; conditions: time 24-60 hrs
[6] = system: Respiratory syncytial virus; assay: Antiviral activity against Respiratory syncytial virus infected in human HEp-2 cells incubated for 60 hrs by MTT assay; assay type: functional, organism-based; conditions: HEp-2, 60 h
[7] = system: Respiratory syncytial virus; assay: Inhibition of RSV induced apoptosis in human HEp-2 cells assessed as late apoptotic cells at 50 uM measured after 60 hrs by Annexin V-FITC/PI staining based flow cytometry analysis (reference value: 20.2%); assay type: functional; design: scale not given: the % may be the effect or the level left
[8] = system: Respiratory syncytial virus; assay: Antiviral activity against Respiratory syncytial virus Long infected in African green monkey Vero cells assessed as reduction in viral infection incubated for 60 hrs by MTT assay; assay type: functional, organism-based; conditions: human respiratory syncytial virus
[9] = system: Respiratory syncytial virus; assay: Antiviral activity against RSV infected in human HEp-2 cells assessed as downregulation of NF-kappaB expression at 25 to 50 uM treated 48 hpi and measured after 48 hrs by Western blot analysis; assay type: functional, organism-based; conditions: dose 25-50 µM
[10] = system: Respiratory syncytial virus; assay: Inhibition of RSV induced apoptosis in human HEp-2 cells assessed as reduction in cleaved caspase-7 expression measured after 48 hrs by Western blot analysis; assay type: functional, organism-based
[11] = system: Respiratory syncytial virus; assay: Antiviral activity against Respiratory syncytial virus infected in human HEp-2 cells assessed as inhibition of viral replication at 25 uM treated up to 14 hpi and measured after 60 hrs by MTT assay; assay type: functional, organism-based
[12] = system: Respiratory syncytial virus; assay: Antiviral activity against RSV infected in human HEp-2 cells assessed as decrease in virus induced IFN-beta gene expression measured after 48 hrs by RT-PCR analysis; assay type: functional, organism-based
[13] = system: Respiratory syncytial virus; assay: Inhibition of RSV induced apoptosis in human HEp-2 cells assessed as late apoptotic cells at 25 uM measured after 60 hrs by Annexin V-FITC/PI staining based flow cytometry analysis (reference value: 20.2%); assay type: functional; design: scale not given: the % may be the effect or the level left
[14] = system: Respiratory syncytial virus; assay: Inhibition of RSV induced apoptosis in human HEp-2 cells assessed as early apoptotic cells at 25 uM measured after 60 hrs by Annexin V-FITC/PI staining based flow cytometry analysis (reference value: 10.3%); assay type: functional; design: scale not given: the % may be the effect or the level left
[15] = system: Respiratory syncytial virus; assay: Antiviral activity against RSV infected in BALB/c mouse assessed as downregulation of TNF-alpha expression in lung tissue infected with RSV at 25 to 100 mg/kg/day measured after 2 to 6 days post infection by RT-PCR analysis; assay type: functional, organism-based; conditions: dose 25-100 mg/kg/day, time 2-6 day
[16] = system: Respiratory syncytial virus; assay: Antiviral activity against RSV infected in human HEp-2 cells assessed as decrease in virus induced NF-kappaB gene expression measured after 48 hrs by RT-PCR analysis; assay type: functional, organism-based
[17] = Inhibition of RSV induced ROS production in human HEp-2 cells assessed as reduction in accumulation of ROS-positive cells at 50 uM measured after 36 hrs by DCHF-DA staining based flow cytometry analysis (reference value: 82.2%); assay type: functional, Respiratory syncytial virus; design: scale not given: the % may be the effect or the level left
[18] = system: Respiratory syncytial virus; assay: Antiviral activity against RSV infected in BALB/c mouse assessed as downregulation of IRF3 expression in lung tissue infected with RSV at 25 to 100 mg/kg/day measured after 2 to 4 days post infection by RT-PCR analysis; assay type: functional, organism-based; conditions: dose 25-100 mg/kg/day, time 2-4 day
[19] = Selectivity index, ratio of CC50 for human HEp-2 cells to EC50 for Respiratory syncytial virus infected in human HEp-2 cells; assay type: toxicity, cell-based; conditions: read-out: Selectivity Index
[20] = system: Respiratory syncytial virus; assay: Antiviral activity against RSV Long infected in BALB/c mouse assessed as improvement in inflammatory infiltration of lung tissue at 25 mg/kg/day observed on day 6 after infection by H and E staining based microscopic analysis; assay type: functional, organism-based; conditions: time 6.0 day
[21] = system: Respiratory syncytial virus; assay: Antiviral activity against RSV infected in BALB/c mouse assessed as downregulation of RIG-1 expression in lung tissue infected with RSV at 25 to 100 mg/kg/day measured after 2 to 4 days post infection by RT-PCR analysis; assay type: functional, organism-based; conditions: dose 25-100 mg/kg/day, time 2-4 day
[22] = system: Respiratory syncytial virus; assay: Antiviral activity against RSV infected in BALB/c mouse assessed as downregulation of IL-10 expression in lung tissue infected with RSV at 25 to 100 mg/kg/day measured after 2 to 6 days post infection by RT-PCR analysis; assay type: functional, organism-based; conditions: dose 25-100 mg/kg/day, time 2-6 day
HEp-2 = assay: Inhibition of RSV induced autophagy flux in RSV-infected infected human HEP-2 cells by measuring p62 expression at 25 to 50 uM measured after 24 hrs by Western blot analysis; assay type: functional, cell-based; conditions: Respiratory syncytial virus, dose 25-50 µM

With `Cc1c(Br)cc2nc3n(c2c1Br)[C@H]1OC[C@@H](O)[C@H]1OC3` the Activity [1] was “Dose-Dependent Effect”, the Activity [2] was 60.7% and the EC50 (Human orthopneumovirus) was 12.8 µM. The Activity [3] was “Dose-Dependent Effect”, the Activity [4] was “Active” and the Activity [5] was “Active”. It also gave an EC50 [6] of 9.49 µM, an Activity [7] of 2.2% and an EC50 [8] of 19 µM. For the same compound, the Activity [9] was “Active”, the inhibition [10] was “Active” and the Activity [11] was “Active”. For the same compound, the Activity [12] was “Dose-Dependent Effect”, the Activity [13] was 1.8% and the Activity [14] was 12%. The Activity [15] was “Active”, the Activity [16] was “Dose-Dependent Effect” and the Activity [17] was 56.3%. For the same compound, the Activity [18] was “Active”, the selectivity ratio [19] was 26.4 and the Activity [20] was “Active”. For the same compound, the Activity [21] was “Active”, the Activity [22] was “Active” and the Activity (HEp-2) was “Active”.

Source: ChEMBL document CHEMBL4831503, “Design, synthesis, in vitro and in vivo anti-respiratory syncytial virus (RSV) activity of novel oxizine fused benzimidazole derivatives” (Eur J Med Chem, 2021)
